# In US9101577B2, “Analgesic pharmaceutical composition for oral administration” (Warszawski Uniwersytet Medyczny, priority 2011, dated 2015):
# Experiments:
# [1] = tested on: Male Wistar rats; experiment: Prolonged activity on repeated daily p.o. administration (7 or 10 days), paw withdrawal test (Randall and Selitto); type: in vivo, rat; conditions: for analgesic activity on separate administration, 7 days (codeine study) / pain threshold on separate administration, 7 days (dihydrocodeine study) / pain threshold on separate administration, 7 days (morphine study) / analgesic activity on separate administration, 7 days (oxycodone study) / pain threshold on separate administration, 10 days (tramadol study): separate administration p.o., magnesium lactate micronized 15 or normal 30 mg magnesium ions/kg; for analgesic activity on separate administration, 7 days (codeine study): codeine 175 mg/kg; for pain threshold on separate administration, 7 days (dihydrocodeine study): dihydrocodeine 50 mg/kg; for pain threshold on separate administration, 7 days (morphine study): morphine 15 mg/kg; for analgesic activity on separate administration, 7 days (oxycodone study): oxycodone 5 mg/kg; for pain threshold on separate administration, 10 days (tramadol study): tramadol 125 mg/kg
# Description: (§1) Male Wistar rats (250-300 g) were housed in a room maintained at a temperature of 20±2° C. under 12 h-12 h light-dark cycles. The animals had free access to food and water. Experimental groups consisted of six rats.
# (§2) Drugs • Morphine at a dose of 15 mg/kg, codeine at a dose of 175 mg/kg, tramadol at a dose of 125 mg/kg and oxycodone at a dose of 5 mg/kg were dissolved in distilled water; • Dihydrocodeine at a dose of 50 mg/kg was suspended in 1% solution of methylcellulose; • Magnesium lactate (in micronized form)—at a dose of 15 mg magnesium ions/kg (150 mg of magnesium lactate/kg) was suspended in 0.5% solution of methylcellulose; • Magnesium lactate in normal (non-micronized) form—at doses of 15 or 30 mg magnesium ions/kg (150 or 300 mg of magnesium lactate/kg, respectively) was suspended in 0.5% solution of methylcellulose; • Magnesium citrate (in micronized and normal form)—at a dose of 15 mg magnesium ions/kg (112 mg of magnesium citrate/kg) was dissolved in distilled water; • Magnesium hydroaspartate (in micronized and normal form)—at a dose of 15 mg magnesium ions/kg (216 mg of magnesium hydroaspartate/kg) was suspended in 0.5% solution of methylcellulose; • Magnesium chloride (in micronized and normal form)—at a dose of 15 mg magnesium ions/kg (59.5 mg of magnesium chloride/kg) was dissolved in distilled water; • Control animals received a 0.5% solution of methylcellulose, a 1% solution of methylcellulose and distilled water, respectively, according to the same time schedule.
# Prolonged activity of the investigated drugs was measured the following day after initial administration, but before the next administration as well as after cessation of administration. Drugs were administered for seven consecutive days (administration of morphine, codeine, dihydrocodeine, oxycodone) or for ten days (administration of tramadol).
# (§3) All drugs were administered per os (p.o.); literally—orally. However, in practice, drugs were administered intragastric via a gastric tube.
# (§4) Changes in pain thresholds were determined using a mechanical stimuli—the modification of the classic paw withdrawal test described by Randall and Selitto [1957]. In order to produce mechanical stimulation, progressively increasing pressure was applied to the dorsal surface of the rat's paw using an analgesymeter. The instrument used increased the force on the paw at a rate of 32 grams per second. The nociceptive threshold was defined as force in grams, at which the rat attempted to withdraw its right hindpaw and values of pressure were recorded at this very moment. At least two observers controlled the response.
# (§5) Nociceptive thresholds (average of two trials) measured for each animal before single administration of investigated drugs (measurement of acute activity) or in day 0 before the first administration (measurement of prolonged activity) constituted the baseline pain threshold—A. Next, measurements of the withdrawal threshold to mechanical stimuli were performed at 5, 15, 30, 60, 90, 120, 180, 240, 300 min after drug administration (measurements of acute activity) or every day before drug administration (measurements of prolonged activity)—B.
# (§6) In all experimental sessions (i.e. every day, each drug investigated) values of thresholds obtained (B) were compared to baseline (A).
# (§7) Changes in pain threshold were calculated as a percent of baseline value according to the following formula:
# (§8) [formula] • C—% of analgesia; A—pressure (in g), baseline pain threshold; B—pressure (in g) in consecutive measurements.
# (§9) Percents of analgesia values calculated as above for individual animals were subsequently used to calculate average values in particular experimental groups and for statistical analysis.
# The results are expressed as mean values±standard […] of the mean (±S.E.M.). The statistical significance of differences between groups was evaluated by Student's t-test. p≦0.05 was accepted as statistically significant.
# [2] = tested on: Male Wistar rats; experiment: Acute activity after single p.o. administration, paw withdrawal test (Randall and Selitto), % of analgesia; type: in vivo, rat; conditions: for effect on analgesic activity of codeine: 15 mg magnesium ions/kg p.o. with codeine 175 mg/kg p.o.; for effect on morphine analgesia / enhancement of morphine analgesia lasted up to / time at which enhancement of morphine analgesia appeared: 15 mg magnesium ions/kg p.o. with morphine 15 mg/kg p.o.; for effect on oxycodone analgesia / time at which activity on oxycodone analgesia appeared / time course of activity on oxycodone analgesia: 15 mg magnesium ions/kg p.o. with oxycodone 5 mg/kg p.o.; for analgesic activity on separate administration (codeine study) / analgesic activity / pain perception threshold on separate administration (dihydrocodeine study) / analgesic activity / pain threshold when administered alone (morphine study) / analgesic activity on separate administration (oxycodone study) / analgesic activity on separate administration (tramadol study): single separate administration p.o., magnesium salts 15 mg magnesium ions/kg; for analgesic activity on separate administration (codeine study): codeine 175 mg/kg; for analgesic activity / pain perception threshold on separate administration (dihydrocodeine study): dihydrocodeine 50 mg/kg; for analgesic activity / pain threshold when administered alone (morphine study): morphine 15 mg/kg; for analgesic activity on separate administration (oxycodone study): oxycodone 5 mg/kg; for analgesic activity on separate administration (tramadol study): tramadol 125 mg/kg
# Description: as §1, §2
# Magnesium salts and investigated opioids were administered concomitantly.
# The micronized form of magnesium salts used in experiments contains particles of magnesium compounds of size D90<50 μm.
# The normal magnesium salts form used in experiments contains particles of sizes commonly available in the market.
# Acute activity of investigated drugs was measured in short time periods (from 5 to 300 min) after single administration.
# as §3, §4, §5, §6, §7, §8, §9
# The results are expressed as mean values±standard deviation of the mean (±S.E.M.).
# [3] = 15 mg magnesium ions/kg p.o. with codeine 175 mg/kg p.o., 7 days
# [4] = 15 mg magnesium ions/kg p.o. with dihydrocodeine 50 mg/kg p.o., 7 days
# [5] = 15 mg magnesium ions/kg p.o. with morphine 15 mg/kg p.o., 7 days
# [6] = 15 mg magnesium ions/kg p.o. with tramadol 125 mg/kg p.o., 10 consecutive days
# [7] = single administration, 15 mg magnesium ions/kg p.o. with dihydrocodeine 50 mg/kg p.o.
# [8] = single administration, 15 mg magnesium ions/kg p.o. with tramadol 125 mg/kg p.o.
# [9] = 30 mg magnesium ions/kg p.o. with codeine 175 mg/kg p.o., 7 days
# [10] = 30 mg magnesium ions/kg p.o. with morphine 15 mg/kg p.o., 7 days
SMILES,"analgesic activity on separate administration, 7 days (codeine study) [1]","pain threshold on separate administration, 7 days (dihydrocodeine study) [1]","pain threshold on separate administration, 7 days (morphine study) [1]","analgesic activity on separate administration, 7 days (oxycodone study) [1]","pain threshold on separate administration, 10 days (tramadol study) [1]",effect on analgesic activity of codeine ([2]; single administration),"effect on dihydrocodeine analgesia [2, 7]","time course of activity on dihydrocodeine analgesia [2, 7]",effect on morphine analgesia ([2]; single administration),enhancement of morphine analgesia lasted up to ([2]; single administration) [min],time at which enhancement of morphine analgesia appeared ([2]; single administration) [min],effect on oxycodone analgesia ([2]; single administration),time at which activity on oxycodone analgesia appeared ([2]; single administration) [min],time course of activity on oxycodone analgesia ([2]; single administration),"effect on antinociceptive activity of tramadol [2, 8]",analgesic activity on separate administration (codeine study) [2],analgesic activity / pain perception threshold on separate administration (dihydrocodeine study) [2],analgesic activity / pain threshold when administered alone (morphine study) [2],analgesic activity on separate administration (oxycodone study) [2],analgesic activity on separate administration (tramadol study) [2],other results
"CC(O)C(=O)[O-].CC(O)C(=O)[O-].[Mg+2] (centres unmarked) [micronized magnesium lactate, Magnesium lactate]",did not exhibit analgesic activity,did not alter the pain threshold,did not alter the pain threshold,did not exhibit analgesic activity,did not alter the pain threshold,significantly enhanced the analgesic activity of codeine,significantly enhanced dihydrocodeine analgesia,gradually increased and reached a maximum between min 45 and 90 of the measurements and then became weaker by min 210,significantly enhanced morphine analgesia,240,30,significantly enhanced oxycodone analgesia,5,"maintained at a constant level up to min 30 of the study, then became weaker in min 45 and disappeared in min 60",increased antynociceptive activity of tramadol,did not exhibit analgesic activity,did not exhibit analgesic activity,Neither morphine nor magnesium lactate and chloride in micronized or normal form administered alone showed analgesic activity,showed no analgesic activity,did not exhibit analgesic activity,"course of enhancement of codeine analgesia [1, 3]: reached a maximum on days 6 and 7; day on which enhancement of codeine analgesia began [1, 3]: fourth; effect on analgesic activity of chronically administered codeine [1, 3]: also enhanced analgesic activity of chronically administered codeine; activity after cessation of drug administration (codeine study) ([1]; 15 mg magnesium ions/kg p.o. with codeine 175 mg/kg p.o., days 8-10): rapidly decreased; course of enhancement of dihydrocodeine analgesia [1, 4]: reached a maximum on days 6 and 7; day on which enhancement of dihydrocodeine analgesia began [1, 4]: fourth; effect on analgesic activity of chronically administered dihydrocodeine [1, 4]: gradually enhanced the analgesic activity of chronically administered dihydrocodeine; pain threshold after cessation of drug administration (dihydrocodeine study) ([1]; 15 mg magnesium ions/kg p.o. with dihydrocodeine 50 mg/kg p.o., days 8-10): the pain threshold rapidly reduced to control values; course of enhancement of morphine analgesia [1, 5]: grew gradually to 7 day; day on which enhancement of morphine analgesia began [1, 5]: 3 days; effect on analgesic activity of morphine, 7-day administration [1, 5]: also enhanced the analgesic activity of morphine; pain threshold after cessation of drug administration (morphine study) ([1]; 15 mg magnesium ions/kg p.o. with morphine 15 mg/kg p.o., days 8-10): gradual return to baseline values; course of enhancement of tramadol analgesia [1, 6]: gradually increased (to day 7), and then was maintained to day 10; day on which enhancement of tramadol analgesia began [1, 6]: third; effect on long-term analgesic activity of tramadol [1, 6]: enhanced the long-term analgesic activity of the examined opioid; pain threshold after removal of the tested substances (tramadol study) ([1]; 15 mg magnesium ions/kg p.o. with tramadol 125 mg/kg p.o., days 11-12): the pain threshold returned to control values by day 11"
"CN1CC[C@]23c4c5ccc(O)c4O[C@H]2[C@@H](O)C=C[C@H]3[C@H]1C5 [morphine, reference compound]",–,–,slightly increased the threshold for mechanical nociceptive stimuli,–,–,–,–,–,–,–,–,–,–,–,–,–,–,Neither morphine nor magnesium lactate and chloride in micronized or normal form administered alone showed analgesic activity,–,–,–
"CC(O)C(=O)[O-].CC(O)C(=O)[O-].[Mg+2] (centres unmarked) [normal magnesium lactate, Magnesium lactate]",did not exhibit analgesic activity,did not alter the pain threshold,did not alter the pain threshold,did not exhibit analgesic activity,did not alter the pain threshold,significantly enhanced the analgesic activity of codeine,significantly enhanced dihydrocodeine analgesia,gradually increased and reached a maximum between min 45 and 90 of the measurements and then became weaker by min 210,significantly enhanced morphine analgesia,180,60,significantly enhanced oxycodone analgesia,5,weakened by min 15 and 30 and was maintained up to min 45,increased antynociceptive activity of tramadol,did not exhibit analgesic activity,did not exhibit analgesic activity,Neither morphine nor magnesium lactate and chloride in micronized or normal form administered alone showed analgesic activity,showed no analgesic activity,did not exhibit analgesic activity,"activity on codeine analgesia compared to micronized form [1, 9]: significantly weaker; days on which activity on codeine analgesia appeared [1, 9]: only appeared on days 6 and 7; activity on dihydrocodeine analgesia compared to micronized form ([1]; 30 mg magnesium ions/kg p.o. with dihydrocodeine 50 mg/kg p.o., 7 days): significantly weaker in comparison to the micronized form; activity on morphine analgesia compared to micronized form [1, 10]: much weaker; days on which activity on morphine analgesia appeared [1, 10]: only on days 6 and 7; activity on dihydrocodeine analgesia in comparison (to micronized form / to magnesium lactate) [2, 7]: somewhat weaker; activity on tramadol analgesia in comparison (to micronized form / to magnesium chloride) [2, 8]: weaker than the micronized form"
